From US8835458B2 (Hanmi Science Co., Ltd, priority 2010, dated 2014)
Where a name gives a salt, the structure may show the parent alone.

What was measured:
[1] = tested on: MDA-MB-231 breast cancer cell lines; experiment: Evaluation of inhibition on cell growth (MTS); format: cell-based; conditions: Homo sapiens, MDA-MB-231, 120 hours
Method: (§1) MDA-MB-231 breast cancer cell lines (ATCC #HTB-26) and BxPC-3 pancreas cancer cell lines (ATCC #CRL 1687), which have been reported to express XIAP, were obtained from ATCC (American type culture collection; Rockville, Md.). MDA-MB-231 cell lines were incubated in L-15 medium supplemented with 10% FBS and 1% penicillin/streptomycin (Gibco BRL) at a T-75 cm^2 growth flask. In addition, BxPC-3 cell lines were incubated in RPMI medium supplemented with 10% FBS and 1% penicillin/streptomycin. For experiments of toxicity to normal cells, fibroblasts Hs27 (ATCC #CRL 1634) and Balb/c3t3 (ATCC #CCL 163) were used. The various cell lines were transferred into 96-well plates at a density of 3,000˜5,000 cells/100 μL, and cultured for 24 hours under conditions of 37° C., 5% CO2, 95% air, and 100% relative humidity (MDA-MB-231 cells were cultured under atmospheric conditions). The cells were treated with 10 μM˜0.1 nM of test compounds, and MDA-MB-231, BxPC-3, and normal cell lines were cultured for 120, 96, and 72 hours, respectively.
(§2) Cell viabilities of MDA-MB-231 cell lines were measured at an absorbance of 490 nm using CellTiter 96™ AQueous One Solution Cell proliferation Assay (MTS, Promega), and cell viabilities of BxPC-3 and normal cell lines were measured by fixing cells with 10% TCA (trichloroacetic acid), staining with SRB (sulforhodamine B), and measuring at 540 nm. From the values, GI50 values in which test compounds reduce the growth of cancer cells by 50% were calculated. The growth rates of cancer cells were calculated from following Equation 1 or 2. [(Ti−Tz)/(C−Tz)]×100 (for Ti>=Tz) [Equation 1] [(Ti−Tz)/Tz]×100 (for Ti<Tz) [Equation 2] In Equations 1 and 2, Tz refers to a density of untreated cells, which is an absorbance in 0% cell growth groups. C refers to a density of cells cultured by adding only medium, and Ti refers to a density of cells treated with test compounds.
(§3) GI50 value is the concentration of a test compound when the value of Equation 1 is 50, which indicates the concentration of test compound required to inhibit the cancer cells by 50%. On each measurement, test compounds were compared with a control.
(§4) The activity value of each compound (GI50 value) was shown in Table 5, and an IAP antagonist was used as a control.
(§5) In the activity measurement on MDA-MB-231 breast cancer cell lines, the values were represented as “***” for 100 nM or less, “**” for over 100 nM to below 1,000 nM, and “*” for 1,000 nM or more. In the measurement on normal cell lines, Balb/C and Hs27, the values were represented as “+++” for 10,000 nM or more, “++” for over 5,000 nM to below 10,000 nM, and “+” for 5,000 nM or less.

[2] = Toxicity to normal cells (SRB); format: cell-based, human; conditions: human, Hs27 fibroblasts (normal cell line)
Method: as §1, §2, §3, §4, §5

Structure (SMILES)	GI50 [1]	GI50 at 72 h [2]
CN[C@@H](C)C(=O)N[C@H](C(=O)N1CCC[C@H]1C(=O)Nc1cc2c(Nc3ccc(N4CCN(C)CC4)c(F)c3)ncnc2cc1OC)C(C)(C)C [Example 112, (S)-1-((S)-3,3-dimethyl-2-((S)-2-(methylamino)propanamido)butanoyl)-N-(4-((3-fluoro-4-(4-methylpiperazin-1-yl)phenyl)amino)-7-methoxyquinazolin-6-yl)pyrrolidine-2-carboxamide]	≤ 0.1 µM	> 10 µM
CN[C@@H](C)C(=O)N[C@H](C(=O)N1CCC[C@H]1C(=O)Nc1cc2c(Nc3ccc(N4CCOCC4)cc3)ncnc2cc1OC)C(C)(C)C [Example 90, (S)-1-((S)-3,3-dimethyl-((S)-2-(methylamino)propanamido)butanoyl)-N-(7-methoxy-4-((4-morpholinophenyl)amino)quinazolin-6-yl)pyrrolidine-2-carboxamide hydrochloride]	≤ 0.1 µM	> 10 µM
CN[C@@H](C)C(=O)N[C@H](C(=O)N1CCC[C@H]1C(=O)Nc1cc2c(NCC3CCCCC3)ncnc2cc1OC)C(C)(C)C [Example 77, (S)—N-(4-(cyclohexylmethyl)amino)-7-methoxyquinazolin-6-yl)-1-((S)-3,3-dimethyl-2-((S)-2-(methylamino)propanamido)butanoyl)pyrrolidine-2-carboxamide hydrochloride]	≤ 0.1 µM	> 10 µM
CN[C@@H](C)C(=O)N[C@H](C(=O)N1CCC[C@H]1C(=O)Nc1cc2c(Nc3ccc(N4CCCCC4)c(Cl)c3)ncnc2cc1OC)C(C)(C)C [Example 96, (S)—N-(4-((3-chloro-4-(piperidin-1-yl)phenyl)amino)-7-methoxyquinazolin-6-yl)-1-((S)-3,3-dimethyl-2-((S)-2-(methylamino)propanamido)butanoyl)pyrrolidine-2-carboxamide hydrochloride]	≤ 0.1 µM	> 10 µM
CN[C@@H](C)C(=O)N[C@H](C(=O)N1CCC[C@H]1C(=O)Nc1cc2c(Nc3ccc4c(c3)CC(=O)N4)ncnc2cc1OC)C(C)(C)C [Example 94, (S)-1-((S)-3,3-dimethyl-2-((S)-2-(methylamino)propanamide)butanoyl)-N-(7-methoxy-4-((2-oxoindolin-5-yl)amino)quinazolin-6-yl)pyrrolidine-2-carboxamide hydrochloride]	0.1 to 1 µM	> 10 µM
CN[C@@H](C)C(=O)N[C@H](C(=O)N1CCC[C@H]1C(=O)Nc1cc2c(Nc3ccc(Br)cc3Cl)ncnc2cc1OC)C(C)(C)C [Example 80, (S)—N-(4-((4-bromo-2-chlorophenyl)amino)-7-methoxyquinazolin-6-yl)-1-((S)-3,3-dimethyl-2-((S)-2-(methylamino)propanamido)butanoyl)pyrrolidine-2-carboxamide hydrochloride]	≤ 0.1 µM	> 10 µM
CN[C@@H](C)C(=O)N[C@H](C(=O)N1CCC[C@H]1C(=O)Nc1cc2c(Nc3ccc(OCc4ccccn4)c(Cl)c3)ncnc2cc1OC)C(C)(C)C [Example 102, (S)—N-(4-((3-chloro-4-(pyridin-2-ylmethoxy)phenyl)amino)-7-methoxyquinazolin-6-yl)-1-((S)-3,3-dimethyl-2-((S)-2-(methylamino)propanamido)butanoyl)pyrrolidine-2-carboxamide hydrochloride]	≤ 0.1 µM	> 10 µM
CN[C@@H](C)C(=O)N[C@H](C(=O)N1CCC[C@H]1C(=O)Nc1cc2c(Nc3ccc(C4CCCN(C)C4)cc3)ncnc2cc1OC)C(C)(C)C (stereo partly drawn) [Example 109, (2S)-1-((S)-3,3-dimethyl-2-((S)-2-(methylamino)propanamido)butanoyl)-N-(7-methoxy-4-((4-(1-methylpiperidin-3-yl)phenyl)amino)quinazolin-6-yl)pyrrolidine-2-carboxamide hydrochloride]	≤ 0.1 µM	> 10 µM
CN[C@@H](C)C(=O)N[C@H](C(=O)N1CCC[C@H]1C(=O)Nc1cc2c(Nc3cccnc3Cl)ncnc2cc1OC)C(C)(C)C [Example 78, (S)—N-(4-((2-chloropyridin-3-yl)amino)-7-methoxyquinazolin-6-yl)-1-((S)-3,3-dimethyl-2-((S)-2-(methylamino)propanamido)butanoyl)pyrrolidine-2-carboxamide hydrochloride]	≤ 0.1 µM	> 10 µM
CN[C@@H](C)C(=O)N[C@H](C(=O)N1CCC[C@H]1C(=O)Nc1cc2c(Nc3cccc(Cl)c3Cl)ncnc2cc1OC)C(C)(C)C [Example 81, (S)—N-(4-((2,3-dichlorophenyl)amino)-7-methoxyquinazolin-6-yl)-1-((S)-3,3-dimethyl-2-((S)-2-(methylamino)propanamido)butanoyl)pyrrolidine-2-carboxamide hydrochloride]	≤ 0.1 µM	> 10 µM
CN[C@@H](C)C(=O)N[C@H](C(=O)N1CCC[C@H]1C(=O)Nc1cc2c(Nc3cc(Cl)c(OCc4ccccn4)c(Cl)c3)ncnc2cc1OC)C(C)(C)C [Example 101, (S)—N-(4-((3,5-dichloro-4-(pyridin-2-ylmethoxy)phenyl)amino)-7-methoxyquinazolin-6-yl)-1-((S)-3,3-dimethyl-2-((S)-2-(methylamino)propanamido)butanoyl)pyrrolidine-2-carboxamide hydrochloride]	≤ 0.1 µM	> 10 µM
CN[C@@H](C)C(=O)N[C@H](C(=O)N1CCC[C@H]1C(=O)Nc1cc2c(Nc3ccc(Cn4ccnc4)cc3)ncnc2cc1OC)C(C)(C)C [Example 111, (S)—N-(4-((4-((1H-imidazol-1-yl)methyl)phenyl)amino)-7-methoxyquinazolin-6-yl)-1-((S)-3,3-dimethyl-2-((S)-2-(methylamino)propanamido)butanoyl)pyrrolidine-2-carboxamide hydrochloride]	0.1 to 1 µM	> 10 µM
CCCN1CCN(c2ccc(Nc3ncnc4cc(OC)c(NC(=O)[C@@H]5CCCN5C(=O)[C@@H](NC(=O)[C@H](C)NC)C(C)(C)C)cc34)cc2Cl)CC1 [Example 98, (S)—N-(4-((3-chloro-4-(4-propyl-1-yl)phenyl)amino)-7-methoxyquinazolin-6-yl)-1-((S)-3,3-dimethyl-2-((S)-2-(methylamino)propanamido)butanoyl)pyrrolidine-2-carboxamide hydrochloride]	≤ 0.1 µM	> 10 µM
CN[C@@H](C)C(=O)N[C@H](C(=O)N1CCC[C@H]1C(=O)Nc1cc2c(Nc3ccc(N4CCCC4)c(Cl)c3)ncnc2cc1OC)C(C)(C)C [Example 113, (S)—N-(4-((3-chloro-4-(pyrrolidin-1-yl)phenyl)amino)-7-methoxyquinazolin-6-yl)-1-((S)-3,3-dimethyl-2-((S)-2-(methylamino)propanamido)butanoyl)pyrrolidine-2-carboxamide]	≤ 0.1 µM	> 10 µM
CN[C@@H](C)C(=O)N[C@H](C(=O)N1CCC[C@H]1C(=O)Nc1cc2c(Nc3ccc(N4CCN(C5CCN(C)CC5)CC4)cc3)ncnc2cc1OC)C(C)(C)C [Example 110, hydrochloride]	≤ 0.1 µM	> 10 µM
C#CCOc1ccc(Nc2ncnc3cc(OC)c(NC(=O)[C@@H]4CCCN4C(=O)[C@@H](NC(=O)[C@H](C)NC)C(C)(C)C)cc23)cc1 [Example 91, (S)-1-((S)-3,3-dimethyl-2-((S)-2-(methylamino)propanamide)butanoyl)-N-(7-methoxy-4-((4-(2-propyn-1-yloxy)phenyl)amino)quinazolin-6-yl)pyrrolidine-2-carboxamide hydrochloride]	≤ 0.1 µM	> 10 µM
CN[C@@H](C)C(=O)N[C@H](C(=O)N1CCC[C@H]1C(=O)Nc1cc2c(Nc3ccc(N4CCC(N5CCCCC5)CC4)cc3)ncnc2cc1OC)C(C)(C)C [Example 103, (S)—N-(4-((4-([1,4′-bipiperidine]-1′-yl)phenyl)amino)-7-methoxyquinazolin-6-yl)-1-((S)-3,3-dimethyl-2-((S)-2-(methylamino)propanamido)butanoyl)pyrrolidine-2-carboxamide hydrochloride]	≤ 0.1 µM	> 10 µM
